{
  "source": "patent US4098823A",
  "about": "“Monospiroalkyl derivatives of prostaglandins” (Miles Laboratories, Inc., priority 1977, dated 1978)",
  "key": {"[1]": {"test_system": "Blood Pressure and Heart Rate", "test": "Effects on Blood Pressure and Heart Rate in the Anesthetized Cat", "format": "in vivo", "settings": "intravenous, 0.01 to 10.0 mcg/kg, scored only on hypotension", "how_it_was_run": "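Cats of either sex anesthetized with pentobarbital sodium (35 mg/kg i.v.) plus barbital sodium (100 mg/kg i.v.), femoral arterial pressure and ECG-driven heart rate recorded. Compound given i.v. at one-log increasing doses, 0.01–10.0 mcg/kg, every 10 min. ED50 mmHg (dose lowering blood pressure by 50 mmHg) derived graphically from hypotension.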"}, "[2]": {"test_system": "rat stomach fundus", "test": "Cascade Assay, stomach (smooth muscle stimulant effect)", "format": "cell-based", "settings": "superfused, 50% of maximum (PGE1)", "how_it_was_run": "(§1)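 Rabbit aortic strip (4 g tension), rat stomach fundus, rat colon and chick rectum (1 g) in cascade, superfused at 10 ml/min with 37° C Krebs containing cholinergic, adrenergic, serotonin and histamine blockers. Doses of 0.001–100,000 ng dripped on at 10–20 min intervals; maximal tension rise gave graphical ED50 per tissue.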"}, "[3]": {"test_system": "chick rectum", "test": "Cascade Assay, rectum (smooth muscle stimulant effect)", "format": "cell-based", "settings": "superfused, 50% of maximum (PGE1)", "how_it_was_run": "as §1"}, "[4]": {"test_system": "rabbit aortic strip", "test": "Cascade Assay, aorta (smooth muscle stimulant effect)", "format": "cell-based", "settings": "superfused, 50% of maximum (PGA2)", "how_it_was_run": "as §1"}, "[5]": {"test_system": "Guinea Pig Trachea", "test": "Effects on the Guinea Pig Trachea in Vitro", "format": "cell-based", "settings": "0.01 to 10.0 mcg/ml, versus PGE1 0.1 mcg/ml, R = relaxation, C = contraction", "description": "A male guinea pig weighing 200-500 g was killed by a blow on the head. A 20 mm length of the trachea was dissected from the animal, transferred to a petri dish containing Krebs' solution (aerated with 95% O2 and 5% CO2 at 37° C), and cut longitudinally opposite the tracheal muscle. The tissue was then cut transversely three quarters of the distance across, a second cut in the opposite direction (again three quarters of the distance across the tissue) was made and the procedure was continued for the whole tissue. The ends of the trachea were pulled to form a zig-zag shaped strip. The tracheal strip used in the experiment was approximately 30 mm when extended under 0.25-0.5 g load in the tissue bath. Cotton thread was tied to one end of the tissue, and linen thread to the other. It was attached via the linen thread to a glass hook in a 5 ml isolated tissue bath containing Krebs' solution (37° C, aerated with a mixture of 95 % O2 and 5% CO2). […]\nA test compound was then added to the same two strips at bath concentrations of 0.01, 0.1, 1.0, and 10.0 mcg/ml and the effects of the compound were recorded. […] The mean of the effects of the test compound on the two strips was then calculated for each concentration, and, based on the resulting values, an activity value was assigned as follows: […]"}, "[6]": {"test_system": "Gastric Secretion", "test": "Effects on Gastric Secretion in the Rat", "format": "in vivo", "settings": "pylorus-ligated rat, subcutaneous, 2 x 1.5 mg/kg (total 3.0 mg/kg), 4 hours", "how_it_was_run": "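Rats (150-200 g, groups of six) fasted 48 h, pylorus ligated under ether. Compounds given s.c. in phosphate buffer pH 7.38 at 1.5 mg/kg immediately post-surgery and 2 h later (total 3.0 mg/kg). At 4 h, gastric volume and total acid (titration with 0.1 N NaOH, mEq) compared with vehicle controls by t-test.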"}, "[7]": {"test_system": "rat colon", "test": "Cascade Assay, colon (smooth muscle stimulant effect)", "format": "cell-based", "settings": "superfused, 50% of maximum (PGF2α)", "how_it_was_run": "as §1"}, "[8]": {"test_system": "Rat Uterus", "test": "Effects on the Rat Uterus in Vitro", "format": "cell-based", "settings": "Rattus norvegicus; in vitro, 29° C; response 50% that of carbachol; read-out: Test F Rat Uterus, Activity Value (ED50)", "how_it_was_run": "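Uterine segments came from rats (140–160 g) given 1 mg/kg diethylstilbestrol s.c. 18 h earlier. Tissue was held isometrically at 1 g tension in de Jalon solution at 29 °C, gassed with 95% O2/5% CO2. Compound was tested at 0.001–10 mcg/ml in log steps, every 10 min with washes, and ED50 was derived graphically as 50% of the second carbachol (1 mcg/ml) response.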"}, "[9]": {"test_system": "Human Platelet Aggregation", "settings": "in vitro; cited from earlier work"}, "[10]": {"test_system": "steroidogenesis in the adrenal glands", "settings": "hypophysectomized rats; cited from earlier work"}, "[11]": {"test_system": "smooth muscle of the vas deferens", "settings": "mammalian male reproductive system; cited from earlier work"}, "[12]": {"test_system": "adrenergic nerve endings", "settings": "guinea pig; cited from earlier work"}, "[13]": {"test_system": "female reproductive system", "settings": "in vivo; cited from earlier work"}, "[14]": {"test_system": "motor pathways in the central nervous system", "settings": "cited from earlier work"}},
  "note": "“Also recorded” adds a separate entry of the source.",
  "data": [
    {"smiles": "COC(=O)CCCCCC[C@H]1C(=O)C=C[C@H]1/C=C/[C@@H](O)C1CC2(CCC2)C1", "note": "[TR-4126, Methyl 7-{5-oxo-2R-[3S-hydroxy-3-(spiro[3.3]hept-2-yl)-1E-propenyl]cyclopent-3-en-1R-yl}heptanoate]", "values": [
      {"measurement": "Test D Activity Value (ED50 mmHg, decrease in blood pressure)", "setting": "[1]", "value": "0 (>10.0)"},
      {"measurement": "Test E Cascade Assay, Stomach, Activity Value (ED50)", "setting": "[2]", "value": "0 (>10000)"},
      {"measurement": "Test E Cascade Assay, Rectum, Activity Value (ED50)", "setting": "[3]", "value": "0 (>10000)"},
      {"measurement": "Test E Cascade Assay, Aorta, Activity Value (ED50)", "setting": "[4]", "value": "0 (>10000)"},
      {"measurement": "Test G Guinea Pig Trachea, Activity Value", "setting": "[5]", "value": "Cl"}
    ]},
    {"smiles": "O=C1C[C@@H](O)[C@H](/C=C/[C@@H](O)C2CC3(CCC3)C2)[C@H]1CCCCCCCO", "note": "[TR-4714, 7-{3R-hydroxy-5-oxo-2R-[3S-hydroxy-3-(spiro[3.3]hept-2-yl)-1E-propenyl]cyclopent-1R-yl}heptan-1-ol]", "values": [
      {"measurement": "Test B Activity Value (% decrease in acidity, inhibition of gastric secretion)", "setting": "[6]", "value": "0 (<26)"},
      {"measurement": "Test E Cascade Assay, Stomach, Activity Value (ED50)", "setting": "[2]", "value": "0 (>10000)"},
      {"measurement": "Test E Cascade Assay, Colon, Activity Value (ED50)", "setting": "[7]", "value": "0 (>10000)"},
      {"measurement": "Test E Cascade Assay, Rectum, Activity Value (ED50)", "setting": "[3]", "value": "0 (>10000)"},
      {"measurement": "Test E Cascade Assay, Aorta, Activity Value (ED50)", "setting": "[4]", "value": "0 (>10000)"},
      {"measurement": "EC50", "setting": "[8]", "value": "> 10", "unit": "µg/mL"},
      {"measurement": "Test G Guinea Pig Trachea, Activity Value", "setting": "[5]", "value": "Cl"}
    ]},
    {"smiles": "CCCCC[C@H](O)/C=C/[C@H]1[C@H](O)CC(=O)[C@@H]1CCCCCCC(=O)O", "note": "[PGE1, prostaglandin E1]", "values": [
      {"measurement": "inhibition of aggregation of human platelets, in words (natural prostaglandin)", "setting": "[9]", "value": "displays a similar activity"},
      {"measurement": "steroidogenesis in the adrenal glands", "setting": "[10]", "value": "stimulate steroidogenesis in the adrenal glands"},
      {"measurement": "contraction of smooth muscle of the vas deferens", "setting": "[11]", "value": "contracts the smooth muscle of the vas deferens"},
      {"measurement": "transmitter release from adrenergic nerve endings", "setting": "[12]", "value": "inhibit transmitter release from adrenergic nerve endings"}
    ]},
    {"smiles": "CCCCC[C@H](O)/C=C/[C@@H]1[C@@H](C/C=C\\CCCC(=O)O)[C@@H](O)C[C@H]1O", "note": "[PGF2α]", "values": [
      {"measurement": "effect in the female reproductive system (fertility, labor, abortion)", "setting": "[13]", "value": "contragestational effects; also recorded: induces spontaneous abortions in early pregnancy"},
      {"measurement": "transmission in motor pathways", "setting": "[14]", "value": "facilitates transmission in motor pathways"}
    ]}
  ]
}
